Test results from US10550102B2, “Indane and indoline derivatives and the use thereof as soluble guanylate cyclase activators” (NOVARTIS AG, priority 2014, dated 2020).

Biological target: soluble guanylate cyclase (human GUCYA3 and GUCYB3) overexpressed in CHO cells (Homo sapiens (Human), UniProt Q02108+Q02153)
Test: CHO cellular assay (cGMP production, Cisbio cGMP HTRF kit)
Type: cell-based
Conditions: CHO GUCY clone 8E10, cGMP production, assay buffer with 1 mM IBMX and 20 uM ODQ, 1 h room temperature; minimum quantification limit 0.5 nM (listed 0.5 nM means ≤0.5 nM); read-out: EC50
From the text: Chinese hamster ovary (CHO) cells overexpressing soluble guanylate cyclase were generated to test the effect of sGC activators in a cellular context. Human cDNAs for GUCYA3 (RefSeq: NM_000856.3) and GUCYB3 (RefSeq: NM_000857.1) were amplified by PCR from a HUVEC (Human Umbilical Vein Endothelial Cells) cDNA library and cloned into mammalian expression vectors. CHO K1 cells (ATCC CCL-61) were transfected using Lipofectamine 2000 following manufacturer's instructions and stably expressing clones were identified by antibiotic selection. CHO GUCY clone 8E10 was used for subsequent experiments. Cells were seeded at a density of 3000 cells/well in white 384-well proxyplates (Perkin Elmer) and incubated overnight, then the medium was removed and cells were washed with assay buffer (HBSS, 0.1% BSA. 1 mM IBMX, 20 uM ODQ). sGC activators were serially diluted in DMSO, then diluted in assay buffer prior to adding to cells (10 ul/well, final DMSO concentration 0.5%). Cells were incubated with compounds for 1 h room temperature, then assayed for cGMP production using Cisbio cGMP HTRF kit (62GM2PEC) according to manufacturer's instructions. The EC50s are calculated based on the amount of cGMP interpolated from the standard curve, using a 4-parameter sigmoidal dose-response.

Chain of soluble guanylate cyclase (human GUCYA3 and GUCYB3) overexpressed in CHO cells (Q02108 whole entry partner): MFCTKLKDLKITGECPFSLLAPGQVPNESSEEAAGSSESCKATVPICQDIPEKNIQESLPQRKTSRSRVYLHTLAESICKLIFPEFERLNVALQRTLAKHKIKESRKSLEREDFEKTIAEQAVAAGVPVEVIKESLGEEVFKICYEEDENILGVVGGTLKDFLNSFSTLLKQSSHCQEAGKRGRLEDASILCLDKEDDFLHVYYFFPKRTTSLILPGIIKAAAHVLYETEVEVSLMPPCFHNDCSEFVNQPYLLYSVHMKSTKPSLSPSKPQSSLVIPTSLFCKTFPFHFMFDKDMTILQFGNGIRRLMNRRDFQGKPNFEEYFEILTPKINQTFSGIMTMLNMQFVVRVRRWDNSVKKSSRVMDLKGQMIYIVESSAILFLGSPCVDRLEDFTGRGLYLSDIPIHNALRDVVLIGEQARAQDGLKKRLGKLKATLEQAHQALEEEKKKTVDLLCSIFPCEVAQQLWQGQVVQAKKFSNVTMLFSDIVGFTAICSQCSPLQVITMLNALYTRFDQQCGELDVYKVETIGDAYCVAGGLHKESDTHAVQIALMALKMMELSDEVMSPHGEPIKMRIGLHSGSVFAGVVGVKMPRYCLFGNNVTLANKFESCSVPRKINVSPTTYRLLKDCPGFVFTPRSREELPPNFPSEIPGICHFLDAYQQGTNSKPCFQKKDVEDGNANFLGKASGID
Chain of soluble guanylate cyclase (human GUCYA3 and GUCYB3) overexpressed in CHO cells (Q02153 whole entry): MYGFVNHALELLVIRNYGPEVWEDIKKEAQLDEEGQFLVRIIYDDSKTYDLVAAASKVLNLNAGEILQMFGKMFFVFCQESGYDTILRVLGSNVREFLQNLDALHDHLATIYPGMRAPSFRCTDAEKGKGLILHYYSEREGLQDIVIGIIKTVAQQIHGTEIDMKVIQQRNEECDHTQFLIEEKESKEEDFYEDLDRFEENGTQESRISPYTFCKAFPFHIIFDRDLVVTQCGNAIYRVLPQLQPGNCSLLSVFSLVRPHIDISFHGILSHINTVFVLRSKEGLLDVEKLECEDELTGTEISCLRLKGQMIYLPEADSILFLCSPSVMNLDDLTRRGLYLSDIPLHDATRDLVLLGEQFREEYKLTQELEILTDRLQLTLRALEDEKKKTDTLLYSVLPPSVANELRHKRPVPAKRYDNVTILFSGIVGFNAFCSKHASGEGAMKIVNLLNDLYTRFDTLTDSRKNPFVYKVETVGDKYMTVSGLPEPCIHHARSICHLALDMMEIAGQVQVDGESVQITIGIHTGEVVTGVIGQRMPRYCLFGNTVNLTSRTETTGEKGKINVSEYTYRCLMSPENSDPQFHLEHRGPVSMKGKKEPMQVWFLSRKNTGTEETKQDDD

Compound | EC50 [nM]
Cc1cc(C2CCN(C(=O)C3CC3)CC2)ccc1CC1CCc2cccc(-c3cccc(-n4ncc(C(=O)O)c4C)n3)c21 (single isomer, unassigned; (+)) [Example 37. b). (+), (+)-1-(6-(3-(4-(1-(Cyclopropanecarbonyl)piperidin-4-yl)-2-methylbenzyl)-2,3-dihydro-1H-inden-4-yl)pyridin-2-yl)-5-methyl-1H-pyrazole-4-carboxylic acid] | ≤ 0.5
CCc1cc(CC2CCc3cccc(-c4cccc(-n5ncc(C(=O)O)c5CC)n4)c32)ccc1C1CCN(C(=O)[C@H](C)O)CC1 (single isomer, unassigned; (+)) [Example 39. b). (+)] | ≤ 0.5
CCc1cc(CC2CCc3cccc(-c4cccc(-n5ncc(C(=O)O)c5CC)n4)c32)ccc1C1CCN(C(=O)OC)CC1 (single isomer, unassigned; (+)) [Example 41. b). (+), (+)-5-ethyl-1-(6-(3-(3-ethyl-4-(1-(methoxycarbonyl)piperidin-4-yl)benzyl)-2,3-dihydro-1H-inden-4-yl)pyridin-2-yl)-1H-pyrazole-4-carboxylic acid] | ≤ 0.5
CCc1c(C(=O)O)cnn1-c1cccc(-c2cccc3c2C(Cc2ccc(C4CCN(C(=O)OC)CC4)cc2C)CC3)n1 (single isomer, unassigned; (+)) [Example 42. b). (+), (+)-5-ethyl-1-(6-(3-(4-(1-(methoxycarbonyl)piperidin-4-yl)-2-methylbenzyl)-2,3-dihydro-1H-inden-4-yl)pyridin-2-yl)-1H-pyrazole-4-carboxylic acid] | ≤ 0.5
Cc1cc(C2CCN(C(=O)C3CCC3)CC2)ccc1NC1CCc2cccc(-c3cccc(-n4ncc(C(=O)O)c4C)n3)c21 (single isomer, unassigned; (+)) [Example 45a] | ≤ 0.5
Cc1cc(C2CCN(C(=O)[C@H](C)O)CC2)ccc1NC1CCc2cccc(-c3cccc(-n4ncc(C(=O)O)c4C)n3)c21 (single isomer, unassigned; (+)) [Example 47a] | ≤ 0.5
CCc1cc(NC2CCc3cccc(-c4cccc(-n5ncc(C(=O)O)c5CC)n4)c32)ccc1C1CCN(C(=O)[C@H](C)O)CC1 (single isomer, unassigned; (+)) [Example 48a] | ≤ 0.5
CCC[C@H](O)C(=O)N1CCC(c2ccc(NC3CCc4cccc(-c5cccc(-n6ncc(C(=O)O)c6CC)n5)c43)cc2CC)CC1 (single isomer, unassigned; (+)) [Example 49a] | ≤ 0.5
CCc1cc(NC2CCc3cccc(-c4cccc(-n5ncc(C(=O)O)c5CC)n4)c32)ccc1C1CCN(C(=O)[C@@H](O)CC)CC1 (single isomer, unassigned; (+)) [Example 50a] | ≤ 0.5
CCc1cc(NC2CCc3cccc(-c4cccc(-n5ncc(C(=O)O)c5CC)n4)c32)ccc1C1CCN(C(=O)OC(C)C)CC1 (single isomer, unassigned; (+)) [Example 51a] | ≤ 0.5
Cc1cc(C2CCN(C(=O)C3CC3)CC2)ccc1NC1CCc2cccc(-c3cccc(-n4ncc(C(=O)O)c4C(F)F)c3)c21 (single isomer, unassigned; (+)) [Example 55-2, (+)-1-(3-(3-((4-(1-(Cyclopropanecarbonyl)piperidin-4-yl)-2-methylphenyl)amino)-2,3-dihydro-1H-inden-4-yl)phenyl)-5-(difluoromethyl)-1H-pyrazole-4-carboxylic acid] | ≤ 0.5
Cc1cc(C2CCN(C(=O)CO)CC2)ccc1NC1CCc2cccc(-c3cccc(-n4ncc(C(=O)O)c4C(F)(F)F)c3)c21 (single isomer, unassigned; (+)) [Example 56] | 1
Cc1cc(C2CCN(C(=O)C3CC3)CC2)ccc1NC1CCc2cccc(-c3cccc(-n4ncc(C(=O)O)c4CC(F)(F)F)n3)c21 (single isomer, unassigned; (+)) [Example 57, (+)-1-(6-(3-((4-(1-(Cyclopropanecarbonyl)piperidin-4-yl)-2-methylphenyl)amino)-2,3-dihydro-1H-inden-4-yl)pyridin-2-yl)-6-(2,2,2-trifluoroethyl)-1H-pyrazole-4-carboxylic Acid] | 1
CCc1nc(NC2CCc3cccc(-c4cccc(-n5ncc(C(=O)O)c5CC)n4)c32)ccc1C1CCN(C(=O)C2CC2)CC1 (single isomer, unassigned; (+)) [Example 63a, (+)-1-(6-(3-((5-(1-(Cyclopropanecarbonyl)piperidin-4-yl)-6-ethylpyridin-2-yl)amino)-2,3-dihydro-1H-inden-4-yl)pyridin-2-yl)-5-ethyl-1H-pyrazole-4-carboxylic Acid] | 2
Cc1cc(C2CCN(C(=O)C3CC3)CC2)ccc1OC1CCc2cccc(-c3cccc(-n4ncc(C(=O)O)c4C(F)(F)F)c3)c21 (single isomer, unassigned; (+)) [Example (+)-1. b), (+)-1-(3-(3-(4-(1-(cyclopropanecarbonyl)piperidin-4-yl)-2-methylphenoxy)-2,3-dihydro-1H-inden-4-yl)phenyl)-5-(trifluoromethyl)-1H-pyrazole-4-carboxylic acid] | ≤ 0.5
Cc1cc(C2CCN(C(=O)C3CC3)CC2)ccc1NC1CCc2cccc(-c3cccc(-n4ncc(C(=O)O)c4C(F)(F)F)n3)c21 (single isomer, unassigned; (+)) [Example (+)-8. b), (+)-1-(6-(3-((4-(1-(cyclopropanecarbonyl)piperidin-4-yl)-2-methylphenyl)amino)-2,3-dihydro-1H-inden-4-yl)pyridin-2-yl)-5-(trifluoromethyl)-1H-pyrazole-4-carboxylic acid] | ≤ 0.5
CCc1cc(CC2CCc3cccc(-c4cccc(-n5ncc(C(=O)O)c5CC)n4)c32)ccc1C1CCN(C(=O)C2CC2)CC1 (single isomer, unassigned; (-)) [38-1 (−), (−)-1-(6-(3-(4-(1-(cyclopropanecarbonyl)piperidin-4-yl)-3-ethylbenzyl)-2,3-dihydro-1H-inden-4-yl)pyridin-2-yl)-5-ethyl-1H-pyrazole-4-carboxylic acid] | 17
CCc1cc(CC2CCc3cccc(-c4cccc(-n5ncc(C(=O)O)c5C)n4)c32)ccc1C1CCN(C(=O)C2CC2)CC1 (single isomer, unassigned; (-)) [38-2 (−), (−)-1-(6-(3-(4-(1-(cyclopropanecarbonyl)piperidin-4-yl)-3-ethylbenzyl)-2,3-dihydro-1H-inden-4-yl)pyridin-2-yl)-5-methyl-1H-pyrazole-4-carboxylic acid] | 9
CCc1c(C(=O)O)cnn1-c1cccc(-c2cccc3c2C(Cc2ccc(C4CCN(C(=O)C5CC5)CC4)cc2C)CC3)n1 (single isomer, unassigned; (-)) [38-3 (−), (−)-1-(6-(3-(4-(1-(cyclopropanecarbonyl)piperidin-4-yl)-2-methylbenzyl)-2,3-dihydro-1H-inden-4-yl)pyridin-2-yl)-5-ethyl-1H-pyrazole-4-carboxylic acid] | 33
CCC[C@H](O)C(=O)N1CCC(c2ccc(CC3CCc4cccc(-c5cccc(-n6ncc(C(=O)O)c6CC)n5)c43)cc2CC)CC1 (single isomer, unassigned; (-)) [40-1 (−)] | 15
CCc1c(C(=O)O)cnn1-c1cccc(-c2cccc3c2C(Cc2ccc(C4CCN(C(=O)[C@H](C)O)CC4)cc2C)CC3)n1 (single isomer, unassigned; (-)) [40-2 (−)] | 25
CCC[C@H](O)C(=O)N1CCC(c2ccc(CC3CCc4cccc(-c5cccc(-n6ncc(C(=O)O)c6CC)n5)c43)c(C)c2)CC1 (single isomer, unassigned; (-)) [40-3 (−)] | 49
Cc1cc2c(c(-c3cccc(-n4ncc(C(=O)O)c4C(F)(F)F)n3)c1)C(Nc1ccc(C3CCN(C(=O)C4CC4)CC3)cc1C)CC2 (single isomer, unassigned; (-)) [43 (−), (−)-1-(6-(3-((4-(1-(Cyclopropanecarbonyl)piperidin-4-yl)-2-methylphenyl)amino)-6-methyl-2,3-dihydro-1H-inden-4-yl)pyridin-2-yl)-5-(trifluoromethyl)-1H-pyrazole-4-carboxylic acid] | 23
Cc1cc(C2CCN(C(=O)C3CC3)CC2)ccc1NC1CCc2cccc(-c3cccc(-n4ncc(C(=O)O)c4C)c3)c21 (single isomer, unassigned; (-)) [44 (−), (−)-1-(3-(3-((4-(1-(cyclopropanecarbonyl)piperidin-4-yl)-2-methylphenyl)amino)-2,3-dihydro-1H-inden-4-yl)phenyl)-5-methyl-1H-pyrazole-4-carboxylic acid] | 9.9
Cc1cc(C2CCN(C(=O)C3CC3)CC2)ccc1CC1CCc2cccc(-c3cccc(-n4ncc(C(=O)O)c4C)c3)c21 (single isomer, unassigned; (-)) [54. b). (−), (−)-1-(3-(3-(4-(1-(cyclopropanecarbonyl)piperidin-4-yl)-2-methylbenzyl)-2,3-dihydro-1H-inden-4-yl)phenyl)-5-methyl-1H-pyrazole-4-carboxylic acid] | 168
CCc1cc(CC2CCc3cccc(-c4cccc(-n5ncc(C(=O)O)c5C)c4)c32)ccc1C1CCN(C(=O)C2CC2)CC1 (single isomer, unassigned; (-)) [55-1 (−), (−)-1-(3-(3-(4-(1-(cyclopropanecarbonyl)piperidin-4-yl)-3-ethylbenzyl)-2,3-dihydro-1H-inden-4-yl)phenyl)-5-methyl-1H-pyrazole-4-carboxylic acid] | 15
